The subject of one test is Zymoseptoria tritici. Kind of test: Leaf Blotch of Wheat fungicidal activity (SEPTTR). The settings on record: Low Volume Cereal Activity at 121.5 g/Ha. The test is classed as in vivo.
Another test has as its system Puccinia triticina. Kind of test: Wheat Brown Rust fungicidal activity (PUCCRT). The test is classed as in vivo. The conditions noted are these: Low Volume Cereal Activity at 121.5 g/Ha.
The test system of the next test is Phakopsora pachyrhizi. Kind of test: Asian Soybean Rust fungicidal activity (PHAKPA). The settings on record: for pest or weed control at 25 ppm: Phakopsora pachyrhizi, in Glycine max.
The mark [1] stands for this setting: 24 h, 1 Day Protectant, read-out: SEPTTR 1DP (Wheat Leaf Blotch, 1 Day Protectant).
Where [2] appears, read: 72 h, 3 Day Curative, read-out: SEPTTR 3DC (Wheat Leaf Blotch, 3 Day Curative).
Where [3] appears, read: 24 h, 1 Day Protectant, read-out: PUCCRT 1DP (Wheat Brown Rust, 1 Day Protectant).
Setting [4] is: 72 h, 3 Day Curative, read-out: PUCCRT 3DC (Wheat Brown Rust, 3 Day Curative).
The mark [5] stands for this setting: 24 h, read-out: PHAKPA 1DP % Control rating, soybean, high volume, 25 ppm, 1 Day Protectant.
[6] abbreviates: 72 h, read-out: PHAKPA 3DC % Control rating, soybean, high volume, 25 ppm, 3 Day Curative.

Molecules are shown by their SMILES. Read-outs that look alike come from different tables or passages of the source.

As for `COc1ccnc(C(=O)N[C@@H](C)C(=O)O[C@@H](C)[C@H](Oc2ccccc2)c2ccc(C)cc2F)c1OCOC(C)=O` [Example 261], the pest or weed control at 121.5 g/ha in the test on Zymoseptoria tritici (setting [1]), with Zymoseptoria tritici (setting [2]), in the test on Puccinia triticina (setting [3]) and in the test on Puccinia triticina (setting [4]) was more than 80% in each case. Besides, the pest or weed control at 25 ppm in the test on Phakopsora pachyrhizi (setting [5]) is more than 80%; with Phakopsora pachyrhizi (setting [6]) it was less than 0%.
For `COc1ccnc(C(=O)N[C@@H](C)C(=O)O[C@@H](C)[C@H](Oc2ccccc2)c2cccc3ccccc23)c1OCOC(C)=O` [Example 262], the pest or weed control at 121.5 g/ha with Zymoseptoria tritici (setting [1]), in the test with Zymoseptoria tritici (setting [2]), in the test on Puccinia triticina (setting [3]) and in the test with Puccinia triticina (setting [4]) was more than 80% in each case. Besides, the values for the pest or weed control at 25 ppm in the test with Phakopsora pachyrhizi (setting [5]) and in the test with Phakopsora pachyrhizi (setting [6]) were more than 80% and less than 0%, respectively.
Take `C=CCOc1cc(F)ccc1[C@@H](Oc1ccccc1)[C@H](C)OC(=O)[C@H](C)NC(=O)c1nccc(OC)c1OC(C)=O` [Example 264]: the pest or weed control at 121.5 g/ha in the test with Zymoseptoria tritici (setting [1]) was more than 80%; with Zymoseptoria tritici (setting [2]), more than 80%; in the test with Puccinia triticina (setting [3]) it was more than 80%; in the test on Puccinia triticina (setting [4]), less than 0%. In addition, the pest or weed control at 25 ppm with Phakopsora pachyrhizi (setting [5]) and in the test with Phakopsora pachyrhizi (setting [6]) was less than 80% each time.
For `CCOc1cc(F)ccc1[C@@H](Oc1ccccc1)[C@H](C)OC(=O)[C@H](C)NC(=O)c1nccc(OC)c1OC(C)=O` [Example 265], the pest or weed control at 121.5 g/ha in the test with Zymoseptoria tritici (setting [1]), in the test with Zymoseptoria tritici (setting [2]), in the test with Puccinia triticina (setting [3]) and in the test on Puccinia triticina (setting [4]) was more than 80% each time. The pest or weed control at 25 ppm in the test with Phakopsora pachyrhizi (setting [5]) is less than 80%; in the test on Phakopsora pachyrhizi (setting [6]) it was less than 0%.
For the compound `COc1cc(F)ccc1[C@@H](Oc1ccc(C)cc1Cl)[C@H](C)OC(=O)[C@H](C)NC(=O)c1nccc(OC)c1OC(C)=O` [Example 266], the pest or weed control at 121.5 g/ha in the test with Zymoseptoria tritici (setting [1]) is more than 80%; in the test with Zymoseptoria tritici (setting [2]) it was more than 80%; in the test with Puccinia triticina (setting [3]), more than 80%; with Puccinia triticina (setting [4]), less than 80%. For the same compound, the pest or weed control at 25 ppm with Phakopsora pachyrhizi (setting [5]) was less than 80%; in the test on Phakopsora pachyrhizi (setting [6]) it was less than 0%.
On to `COc1ccnc(C(=O)N[C@@H](C)C(=O)O[C@@H](C)[C@H](Oc2ccccc2)c2ccc(F)cc2OC(C)=O)c1OC(C)=O` [Example 267], for which the pest or weed control at 121.5 g/ha in the test with Zymoseptoria tritici (setting [1]) is more than 80%; with Zymoseptoria tritici (setting [2]), less than 80%; in the test with Puccinia triticina (setting [3]), less than 80%; in the test on Puccinia triticina (setting [4]) it was less than 0%. Also, the pest or weed control at 25 ppm in the test on Phakopsora pachyrhizi (setting [5]) and in the test with Phakopsora pachyrhizi (setting [6]) was less than 80% in each case.
In the case of `CCCOc1cc(F)ccc1[C@@H](Oc1ccccc1)[C@H](C)OC(=O)[C@H](C)NC(=O)c1nccc(OC)c1OC(C)=O` [Example 268], the pest or weed control at 121.5 g/ha in the test on Zymoseptoria tritici (setting [1]), with Zymoseptoria tritici (setting [2]), in the test with Puccinia triticina (setting [3]) and with Puccinia triticina (setting [4]) was more than 80% in each case. In addition, the pest or weed control at 25 ppm with Phakopsora pachyrhizi (setting [5]) and with Phakopsora pachyrhizi (setting [6]) was less than 80% each time.
`COc1cc(F)ccc1[C@@H](Oc1ccccc1)[C@H](C)OC(=O)[C@H](C)NC(=O)c1nccc(OC)c1OC(C)=O` [Example 269]: the pest or weed control at 121.5 g/ha with Zymoseptoria tritici (setting [1]), with Zymoseptoria tritici (setting [2]), in the test with Puccinia triticina (setting [3]) and in the test on Puccinia triticina (setting [4]) was more than 80% throughout. In addition, the pest or weed control at 25 ppm in the test on Phakopsora pachyrhizi (setting [5]) was more than 80%. For the same compound, in the test with Phakopsora pachyrhizi (soybean, high volume, 25 ppm, 3 Day Curative), the “PHAKPA 3DC % Control rating” value is “B (≦80)”.
For the compound `COc1cc(F)ccc1[C@@H](Oc1ccc(C)cc1)[C@H](C)OC(=O)[C@H](C)NC(=O)c1nccc(OC)c1OC(C)=O` [Example 271], the pest or weed control at 121.5 g/ha in the test on Zymoseptoria tritici (setting [1]) was more than 80%; in the test with Zymoseptoria tritici (setting [2]), more than 80%; with Puccinia triticina (setting [3]), more than 80%; with Puccinia triticina (setting [4]) it was less than 0%. Besides, the pest or weed control at 25 ppm in the test with Phakopsora pachyrhizi (setting [5]) and with Phakopsora pachyrhizi (setting [6]) was less than 80% throughout.

The values above are taken from patent publication US20180002288A1, “USE OF PICOLINAMIDES AS FUNGICIDES” (DOW AGROSCIENCES LLC, priority 2014, published 2018).
